Assay results taken from patent US12186328B2, “Use of CSA compounds to stimulate stem cells and hair growth” (Brigham Young University, priority 2019, dated 2025).

How the values were obtained:
[1] = tested on: hair growth on depilated dorsal skin of C57BL/6 mice; test: Mouse model of hair regrowth after shaving and depilation, topical CSA-44 cream; assay type: in vivo, mice (C57BL/6); settings: for Percentage Change in Hair growth: Day 21, compared with vehicle treated control group; for Hair growth scoring Day 1 / Hair growth scoring Day 3 / Hair growth scoring Day 7 / Hair growth scoring Day 10 / Hair growth scoring Day 14 / Hair growth scoring Day 17: Mean ± SE, n = 8, score 0-10
Description: A mouse model was used to test the effectiveness of a CSA-based treatment composition in stimulating stem cells and regenerating hair growth. Male C57BL/6 mice aged 8 weeks, were housed under environmentally monitored conditions and were fed a standard rodent diet. The hair on the dorsal surface of each mouse was shaved with an animal clipper, which was then followed by application of a depilatory cream to clean the remaining hair as described by Jung M K et al (Life Sci. 2015 May 1; 128:39-46). The mice were then allowed to rest for 24 h.
On the day of experiment, all the animals were weighed and randomized into different treatment groups (n=8) according to body weight. Randomized animals were identified by individual animal marking and cage cards were used for group identification.
The animals of Group 1, the control mice, were treated topically with the cream-based vehicle. The animals of Group 2 were treated topically with 100 mg of […] once daily for 3 weeks. The animals in Group 3 were treated topically with 100 mg of 2.0% CSA-44 test compound once every other day for 3 weeks.
A preliminary tolerability study was conducted in C57BL/6 mice for selecting an appropriate well tolerated dose for the present efficacy study. Based on the results from the preliminary dose tolerability study, 100 mg of a formulation containing 0.5% CSA-44 was uniformly applied topically on the shaven areas of the dorsal skin once daily for 3 weeks. Similarly, 100 mg of 2% CSA-44 formulation was applied topically every other day for 3 weeks. 100 mg of cream vehicle was applied topically on the shaved areas once daily for 3 weeks.
The hair-growth score was evaluated using the scoring pattern below as described by Vegesna et al (Endocrinology 143(11):4389-4396). A score of ‘0’ indicates no change in the amount of hair growth compared with the hair-loss induction day and a score of ‘10’ indicates full hair growth on the entire site on the dorsal skin. Darkening and hair-growth rate was monitored twice weekly for 3 weeks. Images of the dorsal skin of the mice were captured using a digital camera at weekly intervals to notice the start of hair regrowth period and the hair regrowth pattern.
Body weight of the animals were recorded once prior to randomization (pre dose) and twice weekly during the course of the study. All animals were observed once daily for clinical signs and twice daily (morning and evening) for mortality and morbidity. No mortality was observed during the study period. Animals were sacrificed at the end of the study period by following a standard protocol using CO2 induced euthanasia. Results
Hair growth score and body weight were recorded twice weekly during the study period. The percentage (%) change in hair growth was calculated on Day 21 by comparing the treated mice with the vehicle treated control group.

[2] = tested on: hair loss associated with a dermal fungal infection; test: Horse with "summer itch" hair loss treated with a composition including CSA-44; assay type: in vivo
Description: A treatment composition including CSA-44 was applied to a horse having a “summer itch” condition associated with a dermal fungal infection. […] As shown, the subject horse had several patches of visible hair loss. […] As shown, hair had regrown to completely fill in the previous patches and the regrown hair was thick and full. Typical time for hair to grow back on a horse following treatment of such a fungal infection is approximately 28 days. The CSA-based treatment therefore regenerated hair growth 1.56 times faster than a conventional treatment.

[3] = 0.5% CSA-44, topical, once daily for 3 weeks
[4] = 2% CSA-44, topical, once every other day for 3 weeks

CCCCCCCCOC(=O)CC[C@@H](C)[C@H]1CC[C@H]2[C@@H]3[C@H](OC(=O)CCN)C[C@@H]4C[C@H](OC(=O)CCN)CC[C@]4(C)[C@H]3C[C@H](OC(=O)CCN)[C@]12C [CSA-44]
Percentage Change in Hair growth [1, 3]: 72%
Hair growth scoring Day 1 [1, 3]: 0.00
Hair growth scoring Day 3 [1, 3]: 0.25
Hair growth scoring Day 7 [1, 3]: 0.50
Hair growth scoring Day 10 [1, 3]: 1.38
Hair growth scoring Day 14 [1, 3]: 2.63
Hair growth scoring Day 17 [1, 3]: 4.88
Percentage Change in Hair growth [1, 4]: 66%
Hair growth scoring Day 1 [1, 4]: 0.00
Hair growth scoring Day 3 [1, 4]: 0.38
Hair growth scoring Day 7 [1, 4]: 0.50
Hair growth scoring Day 10 [1, 4]: 1.50
Hair growth scoring Day 14 [1, 4]: 2.50
Hair growth scoring Day 17 [1, 4]: 4.13
Skin area with black hair compared with control group ([1]; CSA-44 treated groups, end of 3 weeks): larger
Hair growth regeneration speed versus conventional treatment ([2]; 18 days versus typical approximately 28 days): 1.56 times faster
Treatment time after which hair had regrown to completely fill in the previous patches ([2]; horse, composition including CSA-44): 18 days
